Values of other authors as cited in patent US20030171260A1, “Compositions and methods utilizing hydroxamates to scavenge oxidant toxins” (priority 2002, published 2003).
Counter-ions that a name gives are not always drawn.

Compound: CCCCOc1ccc(CC(=O)NO)cc1 [bufexamac]
- oral LD50 dose (rat; in vivo, po): 3,370 mg/kg
- intraperitoneal LD50 dose (rat; intraperitoneal): 805 mg/kg
- subcutaneous LD50 dose (rat; subcutaneous): > 5,000 mg/kg

Compound: CC(=O)N(O)CCCCCNC(=O)CCC(=O)N(O)CCCCCNC(=O)CCC(=O)N(O)CCCCCN [desferoxamine mesylate]
- time to leave the vascular space after administration: ≤ 60 min
